A word on the solubility: it is how much of the substance goes into solution per volume.

The series in a line: Solubility in water. In kind it is physicochemical. The conditions noted are these: aqueous solubility determined at about 22° C. unless otherwise specified, read-out: solubility in water. The source says: The invention is useful for CETP inhibitors which have sufficiently low aqueous solubility, low bioavailability or slow rate of absorption such that it is desirable to increase their concentration in an aqueous environment of use. Therefore, anytime one finds it desirable to raise the aqueous concentration of the CETP inhibitor in a use environment, the invention will find utility.
`COC(=O)N(Cc1cc(C(F)(F)F)cc(C(F)(F)F)c1)[C@H]1C[C@@H](C2CC2)N(C(=O)OC(C)C)c2ccc(C(F)(F)F)cc21` [Drug 8, [2S,4S]4-[(3,5-bis-trifluoromethyl-benzyl)-methoxycarbonyl-amino]-2-cyclopropyl-6-trifluoromethyl-3,4-dihydro-2H-quinoline-1-carboxylic acid isopropyl ester]: the solubility was less than 1 µg/mL.
The same measure for `CC(C)c1cc2c(c(-c3ccc(F)cc3)c1[C@@H](F)c1ccc(C(F)(F)F)cc1)[C@@H](O)CC1(CCC1)C2` [Drug 10, (4′S)-5′-(4-fluorophenyl)-6′-[(S)-fluoro[4-(trifluoromethyl)phenyl]methyl]-3′,4′-dihydro-7′-(1-methylethyl)-spiro[cyclobutane-1,2′(1′H)-naphthalen]-4′-ol]: less than 1 µg/mL; for `CCc1cc(Oc2cccc(N(Cc3cccc(OC(F)(F)C(F)F)c3)C[C@@H](O)C(F)(F)F)c2)ccc1Cl` [Drug 11, (2R)-3-[[3-(4-chloro-3-ethylphenoxy)phenyl][[3-(1,1,2,2-tetrafluoroethoxy)phenyl]methyl]amino]-1,1,1-trifluoro-2-propanol]: less than 1 µg/mL; for `CC[C@@H]1C[C@H](N(Cc2cc(C(F)(F)F)cc(C(F)(F)F)c2)C(=O)OC)c2cc(C(F)(F)F)ccc2N1C(=O)OC(C)C` [Drug 12, [2R,4S]4-[(3,5-bis-trifluoromethyl-benzyl)-methoxycarbonyl-amino]-2-ethyl-6-trifluoromethyl-3,4-dihydro-2H-quinoline-1-carboxylic acid isopropyl ester]: less than 1 µg/mL.

These data come from US8389011B2, “Pharmaceutical compositions of cholesteryl ester transfer protein inhibitors” (Bend Research, Inc., priority 2000, dated 2013).
